Results reported in ChEMBL document CHEMBL1135847, “Structure-activity relationship of linear peptide Bu-His-DPhe-Arg-Trp-Gly-NH(2) at the human melanocortin-1 and -4 receptors: arginine substitution” (Bioorg Med Chem Lett, 2002).

Experiments:
[1] = pKa value was evaluated; type: physicochemical
[2] = molecular target: T1, Melanocortin receptor 4 (Homo sapiens, UniProt P32245); experiment: Agonist potency towards human Melanocortin 4 receptor; type: functional
[3] = molecular target: T2, Melanocyte-stimulating hormone receptor (Homo sapiens, UniProt Q01726); experiment: Agonist potency for human Melanocortin 1 receptor; type: functional
Target sequence in this assay (Q01726 whole entry): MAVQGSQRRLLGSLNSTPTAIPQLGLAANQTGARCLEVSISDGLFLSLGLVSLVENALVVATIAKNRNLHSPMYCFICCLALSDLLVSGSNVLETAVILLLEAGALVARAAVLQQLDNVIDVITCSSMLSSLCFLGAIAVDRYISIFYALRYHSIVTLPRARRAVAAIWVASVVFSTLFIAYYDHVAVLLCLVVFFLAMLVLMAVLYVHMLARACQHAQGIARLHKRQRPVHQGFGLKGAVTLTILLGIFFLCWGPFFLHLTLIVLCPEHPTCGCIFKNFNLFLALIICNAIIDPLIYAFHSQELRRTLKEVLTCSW

[4] = molecular target: T1, Melanocortin receptor 4; experiment: Agonist potency towards human Melanocortin 4 receptor at 50 uM; type: functional
[5] = molecular target: T2, Melanocyte-stimulating hormone receptor; experiment: Agonist potency towards human Melanocortin 1 receptor at 50 uM; type: functional
Target sequence in this assay (Q01726 whole entry, looked up): as the sequence (Q01726 whole entry) above

T1 sequence (P32245 whole entry): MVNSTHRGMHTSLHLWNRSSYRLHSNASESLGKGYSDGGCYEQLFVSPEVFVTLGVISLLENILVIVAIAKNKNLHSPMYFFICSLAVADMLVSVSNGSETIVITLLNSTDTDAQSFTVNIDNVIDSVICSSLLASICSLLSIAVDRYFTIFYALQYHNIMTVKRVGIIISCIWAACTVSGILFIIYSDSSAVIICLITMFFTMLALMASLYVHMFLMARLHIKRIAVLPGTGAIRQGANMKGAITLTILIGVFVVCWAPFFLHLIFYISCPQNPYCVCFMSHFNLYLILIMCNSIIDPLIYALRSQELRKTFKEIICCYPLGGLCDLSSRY

Row | Structure (SMILES) | pKa [1] | EC50 [2] [nM] | EC50 [3] [nM] | Activity [4] [%] | Activity [5] [%]
1 | CCCCN[C@@H](Cc1cnc[nH]1)C(=O)N[C@H](Cc1ccccc1)C(=O)N[C@@H](CCCNC(N)=NC#N)C(=O)N[C@@H](Cc1c[nH]c2ccccc12)C(=O)NCC(N)=O | ~0 | 70 | 15 | – | –
2 | CCCCN[C@@H](Cc1cnc[nH]1)C(=O)N[C@H](Cc1ccccc1)C(=O)N[C@@H](CCCCNCc1ccccc1)C(=O)N[C@@H](Cc1c[nH]c2ccccc12)C(=O)NCC(N)=O | – | 4800 | 85 | – | –
3 | CCCCN[C@@H](Cc1cnc[nH]1)C(=O)N[C@H](Cc1ccccc1)C(=O)N[C@@H](CCCNC(N)=O)C(=O)N[C@@H](Cc1c[nH]c2ccccc12)C(=O)NCC(N)=O | – | 760 | 950 | – | –
4 | CCCCN[C@@H](Cc1cnc[nH]1)C(=O)N[C@H](Cc1ccccc1)C(=O)N[C@@H](CCC(=O)NC(=N)N)C(=O)N[C@@H](Cc1c[nH]c2ccccc12)C(=O)NCC(N)=O | ~7 | 10 | 1 | – | –
5 | CCCCN[C@@H](Cc1c[nH]cn1)C(=O)N[C@H](Cc1ccccc1)C(=O)N[C@@H](Cc1c[nH]cn1)C(=O)N[C@@H](Cc1c[nH]c2ccccc12)C(=O)NCC(N)=O | – | 1420 | 1700 | – | –
6 | CCCCN[C@@H](Cc1cnc[nH]1)C(=O)N[C@H](Cc1ccccc1)C(=O)N[C@@H](CCCNC(=N)N)C(=O)N[C@@H](Cc1c[nH]c2ccccc12)C(=O)NCC(N)=O | – | 20 | 10 | – | –
7 | CCCCN[C@@H](Cc1c[nH]cn1)C(=O)N[C@H](Cc1ccccc1)C(=O)N[C@@H](CCC/N=C(/N)N[N+](=O)[O-])C(=O)N[C@@H](Cc1c[nH]c2ccccc12)C(=O)NCC(N)=O | – | – | – | 85 | 40
8 | CCCCN[C@@H](Cc1c[nH]cn1)C(=O)N[C@H](Cc1ccccc1)C(=O)N[C@@H](CCCCNC(C)C)C(=O)N[C@@H](Cc1c[nH]c2ccccc12)C(=O)NCC(N)=O | – | – | 255 | 25 | –
9 | CCCCN[C@@H](Cc1c[nH]cn1)C(=O)N[C@H](Cc1ccccc1)C(=O)N[C@@H](CCCN)C(=O)N[C@@H](Cc1c[nH]c2ccccc12)C(=O)NCC(N)=O | – | 2500 | 900 | – | –
10 | CCCCN[C@@H](Cc1cnc[nH]1)C(=O)N[C@H](Cc1ccccc1)C(=O)N[C@@H](CCCN(C)C)C(=O)N[C@@H](Cc1c[nH]c2ccccc12)C(=O)NCC(N)=O | – | 3280 | 350 | – | –
11 | CCCCN[C@@H](Cc1c[nH]cn1)C(=O)N[C@H](Cc1ccccc1)C(=O)N[C@@H](CCCCN(C)C)C(=O)N[C@@H](Cc1c[nH]c2ccccc12)C(=O)NCC(N)=O | – | 1670 | 60 | – | –
